The text below walks through data of ChEMBL document CHEMBL3352035, “Design and synthesis of new 7-(N-substituted-methyl)-camptothecin derivatives as potent cytotoxic agents” (Bioorg Med Chem Lett, 2014).

Test [1] has as its system A549. The experiment in a line: Cytotoxicity against human A549 cells after 72 hrs sulforhodamine B colorimetric assay. The note with it: A549, 72 h. Background: Sulforhodamine B stains cellular protein and so reports cell mass.
The subject of test [2] is KB. The test is described as follows: Cytotoxicity against human KB cells after 72 hrs sulforhodamine B colorimetric assay.
Test [3] relates to MDA-MB-231. The test is described as follows: cells. The following applies: Homo sapiens, MDA-MB-231, 72 h.
Description: Cytotoxicity against human MDA-MB-231 cells after 72 hrs sulforhodamine B colorimetric assay
Test [4] is described as follows: cells. The following applies: Homo sapiens, KBVIN, 72 h.
Description: Cytotoxicity against multidrug-resistant human KBVIN cells after 72 hrs sulforhodamine B colorimetric assay
A short description of test [5]: Ratio of topotecan IC50 to compound IC50 for multidrug-resistant human KBVIN cells after 72 hrs sulforhodamine B colorimetric assay. It counts as functional.
The test system of test [6] is A549. The test is described as follows: Ratio of topotecan IC50 to compound IC50 for human A549 cells after 72 hrs sulforhodamine B colorimetric assay. It counts as functional.

On to `CC[C@@]1(O)C(=O)OCc2c1cc1n(c2=O)Cc2c-1nc1ccccc1c2CNc1ccc(OC)cc1`, for which the IC50 in test [1] is 47 nM; in test [2], 75.8 nM; in test [3], 84.2 nM; in test [4], 77.3 nM.

For `CC[C@@]1(O)C(=O)OCc2c1cc1n(c2=O)Cc2c-1nc1ccccc1c2CN1CCCCC1`, the IC50 stood at 21.9 nM in test [1], 49.9 nM in test [2], 69.9 nM in test [3] and 20.5 nM in test [4].

With `CC[C@@]1(O)C(=O)OCc2c1cc1n(c2=O)Cc2c-1nc1ccccc1c2CN1CCCC1`, the IC50 in test [1] was 15.5 nM; in test [2], 37.1 nM; in test [3] it was 60.9 nM; in test [4], 20.8 nM.

As for `CC[C@@]1(O)C(=O)OCc2c1cc1n(c2=O)Cc2c-1nc1ccccc1c2CN1CCN(C)CC1`, the half-inhibitory concentration (IC50) in test [1] turned out to be 62.2 nM; in test [2], 89.5 nM; in test [3], 110 nM; in test [4], 274 nM.

As to `CC[C@@]1(O)C(=O)OCc2c1cc1n(c2=O)Cc2c-1nc1ccccc1c2CN(C(C)C)C(C)C`, the IC50 in test [1] was 534 nM; in test [2], 813 nM; in test [3] it was 1110 nM; in test [4], 1060 nM.

Take `CCCNCc1c2c(nc3ccccc13)-c1cc3c(c(=O)n1C2)COC(=O)[C@]3(O)CC`: the IC50 worked out at 4.8 nM in test [1], 15 nM in test [2], 31.6 nM in test [3] and 21.7 nM in test [4]. The “Ratio IC50” value in test [5] and in test [6] was 7 throughout.

For the compound `CC[C@@]1(O)C(=O)OCc2c1cc1n(c2=O)Cc2c-1nc1ccccc1c2CNCCO`, the IC50 came to 150 nM in test [1], 208 nM in test [2], 378 nM in test [3] and 183 nM in test [4].

For `CC[C@@]1(O)C(=O)OCc2c1cc1n(c2=O)Cc2c-1nc1ccccc1c2CNc1ccc(C)cc1`, the concentration for half-maximal inhibition (IC50) is 58.7 nM in test [1], 81.7 nM in test [2], 92.7 nM in test [3] and 79.5 nM in test [4].

`CC[C@@]1(O)C(=O)OCc2c1cc1n(c2=O)Cc2c-1nc1ccccc1c2CNc1ccccc1OC`: the concentration for half-maximal inhibition (IC50) was determined as 2.3 nM in test [1], 4.6 nM in test [2], 26.4 nM in test [3] and 14.9 nM in test [4]. For the same compound, the “Ratio IC50” value in test [5] and in test [6] was 7 each time.

On to `CC[C@@]1(O)C(=O)OCc2c1cc1n(c2=O)Cc2c-1nc1ccccc1c2CNc1ccc(F)cc1`, for which the IC50 in test [1] amounted to 6.3 nM; in test [2], 5 nM; in test [3], 30 nM; in test [4], 13.2 nM. The “Ratio IC50” value in test [5] and in test [6] was 7 in each case.

`CC[C@@]1(O)C(=O)OCc2c1cc1n(c2=O)Cc2c-1nc1ccccc1c2CNc1ccc(Cl)cc1`: the 50% inhibitory concentration (IC50) was determined as 39.1 nM in test [1], 39.7 nM in test [2], 64.4 nM in test [3] and 12.9 nM in test [4].

For `CC[C@@]1(O)C(=O)OCc2c1cc1n(c2=O)Cc2c-1nc1ccccc1c2CNc1ccc(Br)cc1`, the 50% inhibitory concentration (IC50) in test [1] turned out to be 59.2 nM; in test [2], 82.1 nM; in test [3], 114 nM; in test [4], 63.3 nM.

`CC[C@@]1(O)C(=O)OCc2c1cc1n(c2=O)Cc2c-1nc1ccccc1c2CNc1cccc2ccccc12`: the half-inhibitory concentration (IC50) was 36.2 nM in test [1], 61.5 nM in test [2], 64 nM in test [3] and 78 nM in test [4].

Regarding `CC[C@@]1(O)C(=O)OCc2c1cc1n(c2=O)Cc2c-1nc1ccccc1c2CNc1cccc(Cl)c1`, the IC50 in test [1] is 50.4 nM; in test [2], 71.3 nM; in test [3], 96.1 nM; in test [4], 68.8 nM.

With `CC[C@@]1(O)C(=O)OCc2c1cc1n(c2=O)Cc2c-1nc1ccccc1c2CNc1ccccc1Cl`, the concentration for half-maximal inhibition (IC50) in test [1] was found to be 17 nM; in test [2] it was 37.1 nM; in test [3], 57.6 nM; in test [4], 12.8 nM.

`CC[C@@]1(O)C(=O)OCc2c1cc1n(c2=O)Cc2c-1nc1ccccc1c2CNCc1ccccc1`: the concentration for half-maximal inhibition (IC50) in test [1] stood at 122 nM; in test [2], 180 nM; in test [3], 337 nM; in test [4] it was 117 nM.

In the case of `CC[C@@]1(O)C(=O)OCc2c1cc1n(c2=O)Cc2c-1nc1ccccc1c2CNc1ccccn1`, the IC50 in test [1] was 51.4 nM; in test [2], 78.6 nM; in test [3], 108 nM; in test [4], 70.6 nM.

On to `CC[C@@]1(O)C(=O)OCc2c1cc1n(c2=O)Cc2c-1nc1ccccc1c2CNc1ccccc1`, for which the 50% inhibitory concentration (IC50) in test [1] stood at 53.2 nM; in test [2] it was 78.3 nM; in test [3], 78.1 nM; in test [4] it was 47.9 nM.

`CC[C@@]1(O)C(=O)OCc2c1cc1n(c2=O)Cc2c-1nc1ccccc1c2CNC1CCCCC1`: the IC50 in test [1] was found to be 18.8 nM; in test [2], 36.2 nM; in test [3], 53.2 nM; in test [4] it was 16.5 nM.

As to `CC(=O)O[C@H]1C(=O)[C@@]2(C)[C@H]([C@H](OC(=O)c3ccccc3)[C@]3(O)C[C@H](OC(=O)[C@H](O)[C@@H](NC(=O)c4ccccc4)c4ccccc4)C(C)=C1C3(C)C)[C@]1(OC(C)=O)CO[C@@H]1C[C@@H]2O` [PACLITAXEL], the IC50 in test [1] is 5.7 nM; in test [2], 3.9 nM; in test [3], 6.6 nM; in test [4], 1440 nM.

As a reminder, the IC50 is the concentration that gives 50% inhibition. A lower IC50 goes with inhibition by little substance.
